Experimental data as given in ChEMBL document CHEMBL5356971, “Optimization of the Antibacterial Spectrum and the Developability Profile of the Novel-Class Natural Product Corramycin” (J Med Chem, 2023).
The source made the active and inactive calls. The rule behind the calls is not given here.

What was measured:
Escherichia coli [1] = test: Antibacterial activity against Escherichia coli ATCC 35218 infected in Swiss albino mouse model of Septicaemia infection assessed as log reduction in Septicaemia in blood at 20 mg/kg , iv preincubated for 4 hrs followed by bacterial infection and measured after 4 hrs post infection; assay type: functional; conditions: time 8 hrs
Klebsiella pneumoniae [2] = test: Antibacterial activity against Klebsiella pneumoniae ATCC 13883 assessed as reduction in microbial growth incubated for 20 to 22 hrs by CLSI based analysis; assay type: functional; conditions: time 20-22 hrs
Escherichia coli [3] = test: Antibacterial activity against Escherichia coli ATCC 35218 assessed as reduction in microbial growth incubated for 20 to 22 hrs by CLSI based analysis; assay type: functional; conditions: time 20-22 hrs
Acinetobacter baumannii [4] = test: Antibacterial activity against Acinetobacter baumannii ATCC 19606 assessed as reduction in microbial growth incubated for 20 to 22 hrs by CLSI based analysis; assay type: functional; conditions: time 20-22 hrs
Acinetobacter baumannii [5] = test: Antibacterial activity against wild type Acinetobacter baumannii ATCC 19606 assessed as reduction in microbial growth incubated for 20 to 22 hrs by CLSI based analysis; assay type: functional; conditions: time 20-22 hrs
Escherichia coli [6] = test: Antibacterial activity against wild type Escherichia coli ATCC 35218 assessed as reduction in microbial growth incubated for 20 to 22 hrs by CLSI based analysis; assay type: functional; conditions: time 20-22 hrs
Escherichia coli [7] = test: Antibacterial activity against Escherichia coli ATCC 35218 harboring SbmA assessed as reduction in microbial growth incubated for 20 to 22 hrs by CLSI based analysis; assay type: functional; conditions: time 20-22 hrs
Klebsiella pneumoniae [8] = test: Antibacterial activity against wild type Klebsiella pneumoniae ATCC 13883 assessed as reduction in microbial growth incubated for 20 to 22 hrs by CLSI based analysis; assay type: functional; conditions: time 20-22 hrs
[9] = Metabolic stability in mouse lung assessed as parent compound remaining measured after 1 hrs by UPLC-MS analysis; assay type: ADME, tissue-based; conditions: for remaining at 1 h: mouse lung, read-out: Stability
[10] = Metabolic stability in mouse lung assessed as parent compound remaining measured after 4 hrs by UPLC-MS analysis; assay type: ADME, tissue-based; conditions: for remaining at 4 h: mouse lung, read-out: Stability
[11] = Metabolic stability in mouse kidney assessed as parent compound remaining measured after 1 hrs by UPLC-MS analysis; assay type: ADME, tissue-based; conditions: read-out: Stability
Escherichia coli [12] = test: Antibacterial activity against Escherichia coli ATCC 25922 infected in Swiss albino mouse thigh infection model at 10 mg/kg, iv measured after 1 hr; assay type: functional, organism-based
Klebsiella pneumoniae [13] = test: Antibacterial activity against Klebsiella pneumoniae ATCC 13883 infected in Swiss albino mouse thigh infection model at 10 mg/kg, iv measured after 1 hr; assay type: functional, organism-based
Klebsiella pneumoniae [14] = test: Antibacterial activity against Klebsiella pneumoniae ATCC 13883 infected in Swiss albino mouse model of neutropenic lung infection at 10 mg/kg, iv pretreated for 1 hr followed by bacterial infection and measured after 5 hr post infection; assay type: functional, organism-based; conditions: time 6.0 hrs
[15] = Metabolic stability in mouse kidney assessed as parent compound remaining measured after 4 hrs by UPLC-MS analysis; assay type: ADME, tissue-based; conditions: read-out: Stability
Klebsiella pneumoniae [16] = test: Antibacterial activity against Klebsiella pneumoniae ATCC 13883 harboring SbmA assessed as reduction in microbial growth incubated for 20 to 22 hrs by CLSI based analysis; assay type: functional; conditions: time 20-22 hrs
Escherichia coli [17] = test: Antibacterial activity against Escherichia coli ATCC 35218 infected in Swiss albino mouse model of Septicaemia infection assessed as log reduction in Septicaemia in blood at 1 mg/kg , iv preincubated for 4 hrs followed by bacterial infection and measured after 4 hrs post infection; assay type: functional; conditions: time 8 hrs

SMILES	Activity (Escherichia coli [1]) [log10CFU]	MIC (Klebsiella pneumoniae [2]) [µg/mL]	MIC (Escherichia coli [3]) [µg/mL]	MIC (Acinetobacter baumannii [4]) [µg/mL]	MIC (Acinetobacter baumannii [5]) [µg/mL]	MIC (Escherichia coli [6]) [µg/mL]	MIC (Escherichia coli [7]) [µg/mL]	MIC (Klebsiella pneumoniae [8]) [µg/mL]	remaining at 1 h [9] [%]	remaining at 4 h [10] [%]	remaining at 1 h [11] [%]	Activity (Escherichia coli [12])	Activity (Klebsiella pneumoniae [13])	Activity (Klebsiella pneumoniae [14])	remaining at 4 h [15] [%]	MIC (Klebsiella pneumoniae [16]) [µg/mL]	Activity (Escherichia coli [17]) [log10CFU]	Stability ([9]; 1 h) [%]	Stability ([10]; 4 h) [%]
CO[C@@H](CNC(=O)[C@H](NC(=O)[C@H](O)[C@H](C)O)[C@H](O)c1cncn1C)[C@H](O)[C@H](O)C(=O)N(C)[C@@H](Cc1ccccc1)C(=O)NCC(=O)N[C@H](C(=O)N[C@@H](CO)C(=O)N[C@H](C(=O)N[C@@H](CC(C)C)C(=O)N[C@@H](CO)C(=O)NCCN)C(C)(C)O)C(C)(C)O	-4.1	8	2	> 32															
CO[C@@H](CNC(=O)[C@H](NC(=O)[C@H](O)[C@H](C)O)[C@H](O)c1cncn1C)[C@H](O)[C@H](O)C(=O)N(C)[C@@H](Cc1ccc(F)cc1)C(=O)NCC(=O)N[C@H](C(=O)N[C@@H](CO)C(=O)N[C@H](C(=O)N[C@H](C(=O)N[C@@H](CO)C(=O)N[C@@H](CN)C(=O)NCc1cc(=O)c(O)cn1O)C(C)(C)C)C(C)(C)O)C(C)(C)O					0.5	0.01	4	0.12	96	107	97	Active	Active	Active	95	> 32			
CO[C@@H](CNC(=O)[C@H](N)[C@H](O)c1cncn1C)[C@H](O)[C@H](O)C(=O)N(C)[C@@H](Cc1ccccc1)C(=O)NCC(=O)N[C@H](C(=O)N[C@@H](CO)C(=O)N[C@H](C(=O)N[C@@H](CC(C)C)C(=O)N[C@@H](CO)C(=O)O)C(C)(C)O)C(C)(C)O		> 64	> 64	> 32															
CO[C@@H](CNC(=O)[C@H](NC(=O)[C@H](O)[C@H](C)O)[C@H](O)c1cncn1C)[C@H](O)[C@H](O)C(=O)N(C)[C@@H](Cc1ccccc1)C(=O)NCC(=O)N[C@H](C(=O)N[C@@H](CO)C(=O)N[C@H](C(=O)N[C@@H](CC(C)C)C(=O)N[C@@H](C)C(=O)O)C(C)(C)O)C(C)(C)O		16	4	> 32															
CO[C@@H](CNC(=O)[C@H](NC(=O)[C@H](O)[C@H](C)O)[C@H](O)c1cncn1C)[C@H](O)[C@H](O)C(=O)N(C)[C@@H](Cc1ccc(F)cc1)C(=O)NCC(=O)N[C@H](C(=O)N[C@@H](CO)C(=O)N[C@H](C(=O)N[C@H](C(=O)N[C@@H](CO)C(=O)O)C(C)(C)C)C(C)(C)O)C(C)(C)O		0.5	0.5	> 32					89	84	109				109				
CO[C@@H](CNC(=O)[C@H](NC(=O)[C@H](O)[C@H](C)O)[C@H](O)c1cncn1C)[C@H](O)[C@H](O)C(=O)N(C)[C@@H](Cc1ccc(F)cc1)C(=O)NCC(=O)N[C@H](C(=O)N[C@@H](CO)C(=O)N[C@H](C(=O)N[C@H](C(=O)N[C@@H](CO)C(=O)NCc1cc(=O)c(O)cn1O)C(C)(C)C)C(C)(C)O)C(C)(C)O					0.5	< 0.01	2	0.125	81	54	44				28	> 32	-5.6		
CO[C@@H](CNC(=O)[C@H](NC(=O)[C@H](O)[C@H](C)O)[C@H](O)c1cncn1C)[C@H](O)[C@H](O)C(=O)N(C)[C@@H](Cc1ccccc1)C(=O)NCC(=O)N[C@@H](C)C(=O)N[C@@H](CO)C(=O)N[C@H](C(=O)N[C@@H](CC(C)C)C(=O)N[C@@H](CO)C(=O)O)C(C)(C)O		> 32	> 32	> 32															
CO[C@@H](CNC(=O)[C@H](NC(=O)[C@H](O)[C@H](C)O)[C@H](O)c1cncn1C)[C@H](O)[C@H](O)C(=O)N(C)[C@@H](Cc1ccccc1)C(=O)NCC(=O)N[C@H](C(=O)N[C@@H](CO)C(=O)N[C@H](C(=O)N[C@H](C(=O)N[C@@H](CCC(=O)NCc1cc(=O)c(O)cn1O)C(=O)O)C(C)(C)C)C(C)(C)O)C(C)(C)O					0.5	0.01	0.12	0.25	100	99	97	Active	Active	Active	103	> 32	-3.2		
CO[C@@H](CNC(=O)[C@H](NC(=O)[C@H](O)[C@H](C)O)[C@H](O)c1cncn1C)[C@H](O)[C@H](O)C(=O)N(C)[C@@H](Cc1ccc(F)cc1)C(=O)NCC(=O)N[C@H](C(=O)N[C@@H](CO)C(=O)N[C@H](C(=O)N[C@H](C(=O)N[C@@H](CO)C(=O)NCCN)C(C)(C)C)C(C)(C)O)C(C)(C)O		0.25	0.125	> 8							105				92		-5.6	127	138
CO[C@@H](CNC(=O)[C@H](NC(=O)[C@H](O)[C@H](C)O)[C@H](O)c1cncn1C)[C@H](O)[C@H](O)C(=O)N(C)[C@@H](Cc1ccccc1)C(=O)NCC(=O)N[C@H](C(=O)N[C@@H](CO)C(=O)N[C@H](C(=O)N[C@H](C(=O)N[C@@H](CO)C(=O)N[C@@H](CCC(=O)NCc1cc(=O)c(O)cn1O)C(=O)O)C(C)(C)C)C(C)(C)O)C(C)(C)O					0.25	< 0.01	0.12	0.06	91	86	92	Active	Active	Active	81	> 32	-3.8		
CC[C@H](C)[C@H](NC(=O)[C@@H](NC(=O)[C@H](CO)NC(=O)[C@@H](NC(=O)CNC(=O)[C@H](Cc1ccccc1)N(C)C(=O)[C@@H](O)[C@@H](O)[C@H](CNC(=O)[C@H](NC(=O)[C@H](O)[C@H](C)O)[C@H](O)c1cncn1C)OC)C(C)(C)O)C(C)(C)O)C(=O)N[C@@H](CO)C(=O)O	-1.9	16	4	> 32					35	13	20				11				
CO[C@@H](CNC(=O)[C@H](NC(=O)[C@H](O)[C@H](C)O)[C@H](O)c1cncn1C)[C@H](O)[C@H](O)C(=O)N(C)[C@@H](Cc1ccccc1)C(=O)NCC(=O)N[C@H](C(=O)N[C@@H](C)C(=O)N[C@H](C(=O)N[C@@H](CC(C)C)C(=O)N[C@@H](CO)C(=O)O)C(C)(C)O)C(C)(C)O		> 32	4	> 32															
CO[C@@H](CNC(=O)[C@H](NC(=O)[C@H](O)[C@H](C)O)[C@H](O)c1cncn1C)[C@H](O)[C@H](O)C(=O)N(C)[C@@H](Cc1ccccc1)C(=O)NCC(=O)N[C@H](C(=O)N[C@@H](CO)C(=O)N[C@H](C(=O)N[C@@H](C)C(=O)N[C@@H](CO)C(=O)O)C(C)(C)O)C(C)(C)O		64	8	> 32															
